# Article PMC10009752 (Journal of Medicinal Chemistry, 2023)
# System: CRL-1831 cells
# Assay: Cytoplasmic cholesterol levels (AmplexRed), CRL-1831
# Type: cell-based, human
# Details: 10 μM, 4 h
# Description: After 4 h exposure to 10 μM of both compounds at 37 °C, cells were trypsinized, washed with PBS, and pelleted by centrifugation at 8000g for 5 min. Cytoplasmic cholesterol levels were quantitated using the AmplexRed Cholesterol Assay kit.[48] Briefly, the pellets were resuspended in the reaction buffer and lysed with a 29G syringe. The working solution, containing the Amplex Red reagent (300 mM), horseradish peroxidase (2 U/mL), cholesterol oxidase (2 U/mL), and cholesterol esterase (0.2 U/mL) in 1× reaction buffer was freshly prepared before each experiment. […] Working solution (50 μL), 40 μL of 1× reaction buffer, and 40 μL of cell lysates were placed in a 96-well plate and incubated at 37 °C for 30 min. After 4 h, fluorescence measurements were recorded (λexc = 540 nm, λem = 590 nm) using a SpectraMax Gemini XPS microplate reader (Molecular Device, Milan – Italy).
row,Structure (SMILES),"cytoplasmic cholesterol concentration, CRL-1831"
1,"CCC(C)(C)C(=O)O[C@H]1C[C@@H](C)C=C2C=C[C@H](C)[C@H](CC[C@@H]3C[C@@H](O)CC(=O)O3)[C@H]21 [Simvastatin, reference compound]",significantly decreased

# System: 5′-biotinylated dsDNA (DNA, duplex) TGTAATCGTAGGTTGGTCCCATCACCCACC/GGTGGGTGATGGGACCAACCTACGATTACA
# Assay: resonant mirror optical biosensor kinetics (IAsys plus)
# Details: 138 mM NaCl, 2.7 mM KCl; PBS (10 mM Na2HPO4), pH 7.4, 37 °C; monoexponential fit
row,KD [µM],Structure (SMILES)
1,3.63 ± 1.88,Cc1nn(-c2ccccc2)c([O-])c1C(=O)c1ccco1.Cc1nn(-c2ccccc2)c([O-])c1C(=O)c1ccco1.Cc1nn(-c2ccccc2)c([O-])c1C(=O)c1ccco1.[Ga+3]
2,2.24 ± 1.36,Cc1nn(-c2ccccc2)c([O-])c1C(=O)c1cccs1.Cc1nn(-c2ccccc2)c([O-])c1C(=O)c1cccs1.Cc1nn(-c2ccccc2)c([O-])c1C(=O)c1cccs1.[Ga+3]

# The next lines start with the molecule.
row,Structure (SMILES),KD [µM]
1,COc1ccc(C(=O)c2c(C)nn(-c3ccccc3)c2[O-])cc1.COc1ccc(C(=O)c2c(C)nn(-c3ccccc3)c2[O-])cc1.COc1ccc(C(=O)c2c(C)nn(-c3ccccc3)c2[O-])cc1.[Ga+3],3.34 ± 1.67
2,Cc1nn(-c2ccccc2)c([O-])c1C(=O)c1ccc(C(C)(C)C)cc1.Cc1nn(-c2ccccc2)c([O-])c1C(=O)c1ccc(C(C)(C)C)cc1.Cc1nn(-c2ccccc2)c([O-])c1C(=O)c1ccc(C(C)(C)C)cc1.[Ga+3],3.27 ± 0.78
3,Cc1nn(-c2ccccc2)c([O-])c1C(=O)c1ccccc1.Cc1nn(-c2ccccc2)c([O-])c1C(=O)c1ccccc1.Cc1nn(-c2ccccc2)c([O-])c1C(=O)c1ccccc1.[Ga+3],0.76 ± 0.54
